From patent publication US20200108043A1, “COMPOUNDS AND COMPOSITIONS FOR EXTENDING LIFESPAN OF A SUBJECT” (YALE UNIVERSITY, priority 2017, published 2020)
“Also recorded” adds a separate entry of the source. Residues, ends and D or L forms follow the SMILES beside them. *: point of attachment. Cbz = O=C(OCc1ccccc1)*

What was measured:
proteasome = biological target: T1, proteasome (Saccharomyces cerevisiae, UniProt P30656); assay: Proteasome assay with fluorogenic substrate Suc-LLVY-AMC on yeast protein extracts; format: biochemical
T1 construct: with 50 μg of total protein in 200 μL of lysis buffer; endogenous in cells; host or cells: S. cerevisiae BY4741 wild-type or ΔUBR2 cells, glass-bead lysate (total protein extract)
Protocol: For protein extraction, 50 mL of cells were grown for 18 hours to an OD600 of approximately 0.8, then transferred to a 50 mL conical tube and centrifuged at 4255×g for 5 minutes at room temperature. The supernatant was discarded, and the cells were re-suspended in 150 μL of cold lysis buffer (50 mM Tris-HCl, pH 7.5, 0.5 mM EDTA, 5 mM MgCl2, with complete ULTRA mini protease inhibitor tablets, EDTA free) and transferred to a 1.5 mL tube. A ¼ volume of 500-750 μm glass beads (Acros Organics 397641000) was added to each tube. For 10 rounds, the tubes were chilled in ice water for 1 minute, then vortexed at maximum speed for 30 seconds to physically rupture the cells, and returned to the ice water. Samples were then spun for 3 minutes at 2500×g and 4° C., and the supernatant was transferred to a fresh tube. The solution was further clarified by centrifugation at 8000×g for 10 minutes at 4° C., and the supernatant was transferred to a fresh tube. Protein concentration was measured using a Nanodrop measuring the absorbance of the sample at 280 nm.
The proteasome assay used was described in Kruegel, et al. PLoS Genet. 7, (2011). The assay was performed in a 96-well clear-bottom plate (Costar 3603) with 50 μg of total protein in 200 μL of lysis buffer. The fluorogenic proteasome substrate Suc-LLVY-AMC (Bachem 1-1395) was added to a final concentration of 100 μM. Fluorescence intensity with an excitation wavelength of 380 nm and an emission wavelength of 460 nm was recorded at 5-minute intervals using a Neo2 plate reader (BioTek) set to mix constantly and maintain 30° C. Negative control reactions were performed in the presence of 50 μM MG132 (Sigma 474787), a proteasome inhibitor.

S. cerevisiae = format: cell-based
Protocol: To obtain the single-cell level data for the age and generation-durations of replicatively aging mother cells, data reported in Liu, P., et al., Cell Rep. 634-644 (2015) was re-analyzed. The data was collected in the same media condition (CSM 2% glucose) as reported elsewhere herein. Cells were grown for ˜24 hours in CSM 2% glucose prior to loading to the microfluidic device. Once cells were loaded, media was swapped to provide CSM 2% glucose control media (untreated), media containing DMSO as a vehicle control (American Bio AB00435), media containing 10 μM terreic acid (Sigma SML0480), media containing 10 μM mycophenolic acid (Sigma M5255), or media containing another compound at the indicated concentration. An automated microscope was used to track […], and replicative lifespan was later determined by counting the number of daughters produced before death. In the case of compound validation, only newborn cells were included in the lifespan experiment. To compare the replicative lifespan of labeled and unlabeled cells, only cells that were present within the traps at the start of the experiment were included. For these experiments, cells were loaded to the microfluidic device at an increased rate of 100 μL/min to increase the number of trapped mother cells. Green fluorescent images were also taken at the start of the experiment to confirm that the cells were visibly labeled.
Differences in lifespan characteristics were assessed through Log-Rank test using MATLAB with a cut-off value of P=0.05. The script for Log-Rank test was downloaded from MATLAB. Differences in proteasome activity were assessed using the unpaired, two-tailed, parametric t-test function of the GraphPad Prism software.
The Longevity Placement Test (LPT) was designed as a mutually exclusive, collectively exhaustive test to determine the relationship of a longevity intervention to a known genetic regulator of lifespan. For a given intervention that extends lifespan, any of three possible relationships may exist relative to a known genetic regulator of lifespan. (1) The intervention may act to extend lifespan independently from the known regulator. (2) The […] may act downstream from the known regulator, converging on a single component of the known regulator's lifespan pathway. (3) The intervention may act upstream from or upon the known regulator, ultimately modulating lifespan through the genetic regulator.
In Step 1 of the LPT, the longevity intervention is applied to a strain in which a genetic regulator of lifespan is deleted. In the event that lifespan extension from the longevity intervention is observed in this background, only possibilities (1) and (2) above remain valid (FIG. 7B). If no lifespan extension is observed, then possibilities (2) and (3) remain valid. Possibility (2) cannot be ruled out in this step, since non-saturating action by the genetic regulator could leave room for lifespan extension by the longevity intervention, while saturating action would preclude it.
In Step 2 of the LPT, an epistatic agent, which prevents lifespan extension from the longevity agent, is applied to a strain in which some upstream member of the genetic regulator's lifespan pathway has been modified to extend lifespan. This step differentiates possibility (2) from the remaining possibility after Step 1. In the event that lifespan extension from the genetic regulator's pathway is suppressed by the epistatic agent, this determines that possibility (2) is correct. In the event that no epistasis is observed, the remaining possibility, (1) or (3), is correct (FIG. 7C).

Saccharomyces cerevisiae = assay: High-Life (High throughput replicative Lifespan measurement) flow cytometry assay in MEP yeast; format: cell-based; settings: 10 μM, 24 hours in culture, 3-4 replicate wells, repeat of screen hits
Protocol: Cells were labeled with NHS-fluorescein as described above, then diluted to 20 cells/μL in media. 80 μL/well was aliquoted to 384-well plates, which were covered with a breathable membrane and placed on a shaker platform in a humidified incubator. After 3 hours, the plates were removed from the incubator and each well was treated with 20 μL pre-warmed, 30° C. 5 μM β-estradiol in media. In the case of ibuprofen or compound-treated wells, the compound was diluted in this volume at a 5× concentration to achieve a final concentration of 10 μM, or 100 μM for ibuprofen. The plates were then returned to the incubator. At indicated times, one plate was removed from the incubator and placed on an autosampler cooled to 8° C. attached to a Stratedigm flow cytometer. The cytometer was set to automatically add and mix 20 μL of aqueous solution containing 60 μg/mL CF405M-WGA (Biotium 29028) and propidium iodide (Sigma P4864) prior to acquiring 80 μL of sample for each well.
In order to test the lifespan of model organisms on both a large-scale and with quick turn-around, a massively multiplexed method was developed to measure replicative lifespan in the short-lived model organisms Saccharomyces cerevisiae. The protocol uses green-fluorescent labeling to identify progenitor cells, red-fluorescent labeling to differentiate non-viable cells, and blue-fluorescent labeling of bud scars to determine replicative age (FIG. 1). Each parameter is measured using a flow cytometer.
To achieve high throughput, the measurement system was automated, and the assay was performed in 384-well plates. The assay was performed using an autosampler-equipped flow cytometer, in a volume of 100 μL. Growth of even a single cell and its progeny in such a small volume will result in nutrient starvation before the natural replicative lifespan is exhausted; therefore to circumvent this issue, High-Life experiments were performed in the background of the Mother Enrichment Program (MEP) (Lindstrom and Gottschling, Genetics. 2009 October; 183(2):413-22). MEP strains express a CRE recombinase fused to an estrogen-binding domain for only a short time after birth. In the presence of β-estradiol, the recombinase translocates to the nucleus where it can excise two essential genes that have been modified to contain the exogenous LoxP sequence. Addition of β-estradiol to the media thus renders newborn daughters inviable without affecting existing mother cells, preventing exponential growth of the cell population and nutrient depletion (FIG. 2A).
The High-Life method was then tested to determine if it was suitable to screening for compounds that extend replicative lifespan. […] The effect of these compounds on High-Life readings was assayed after 24 hours in culture at 10 μM concentration. As a positive control, ibuprofen was used.

C. elegans = assay: Roundworm (C. elegans) lifespan extension; format: in vivo, Caenorhabditis elegans; settings: 10 μM in NGM plates, treated for duration of lifespan, vs control
Protocol: Synchronized animals were obtained using the egg-laying method, allowing young […] eggs for 4 hours on bacteria-seeded plates. For each treatment group, 120 synchronized day-1 adults were used. All experiments were carried out at 20° C. Treatment groups were blinded. Nematode growth media (NGM) plates were made for each treatment group: Negative control (DMSO), Mycophenolic Acid (10 μM in DMSO), and Terreic Acid (10 μM in DMSO). The compounds were added to NGM media before pouring the plates. The plates were then dried overnight before moving them to 4° C. to prevent degradation of the compounds. Plates were seeded with 100 μL of 10× concentrated OP50 E. coli, and dried overnight at room temperature. Plates were UV treated with a UVP CL-1000 Ultraviolet Crosslinker, run twice on the energy setting ‘9999’ for about 5 minutes each run. Worms were transferred to new plates every 2-4 days. Viability was scored every day, with death determined by lack of response to a platinum wire. Missing worms, or those that died due to internal hatching were censored.

CC(C)C[C@@H](C=O)NC(=O)[C@H](CC(C)C)NC(=O)[C@H](CC(C)C)NC(=O)OCc1ccccc1 [MG-132] (Cbz-Leu-Leu-Leu-aldehyde)
rate of fluorescence increase in proteasome assay (negative control) (proteasome; 50 μM MG132): low rate of fluorescence increase

Nc1nc2nc[nH]c2c(=O)[nH]1 [guanine]
proteasome activity in ΔUBR2 cells (proteasome; ΔUBR2 cells, presence vs absence of guanine): did not alter proteasome activity | reversal of lifespan extension conferred by SIR2 overexpression (LPT step 2) (S. cerevisiae; SIR2 overexpression, guanine as epistatic agent): did not reverse the lifespan extension | suppression of lifespan extension in ΔHXK2 strain (LPT step 2) (S. cerevisiae; ΔHXK2 strain, guanine as epistatic agent): did not suppress lifespan extension | suppression of lifespan extension in ΔTOR1 strain (LPT step 2) (S. cerevisiae; ΔTOR1 strain, guanine as epistatic agent): did not suppress lifespan extension | suppression of lifespan extension from UBR2 deletion (LPT step 2) (S. cerevisiae; ΔUBR2 strain, guanine supplementation): partially suppressed lifespan extension

CC1=C(O)C(=O)[C@@H]2O[C@@H]2C1=O [terreic acid]
average High-Life readings (progenitor fraction viable vs CF405M intensity) relative to controls (Saccharomyces cerevisiae): at least slightly above controls | extension of mean RLS (S. cerevisiae; 10 μM compound, wild-type haploid cells, Replicator device): 15% | lifespan of C. elegans (C. elegans): measurable extension of lifespan; also recorded: statistically significant lifespan extension
